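Results reflect a 48-hour exposure of cells in 96-well plates to compound at five concentrations. At the TGI there is no net growth.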
Key:
Experiment in all cases: NCI anticancer screen, dose series, 48 h
[1] = system: RXF 393 renal
[2] = system: MOLT-4 leukemia
[3] = system: MDA-MB-435
[4] = system: SW-620 colon
[5] = system: DU-145 prostate
[6] = system: KM12 colon
[7] = system: K-562 leukemia
[8] = system: OVCAR-4 ovarian
[9] = system: RPMI-8226 leukemia
[10] = system: M14 melanoma
[11] = system: HOP-92 NSCLC
[12] = system: PC-3 prostate
[13] = system: SK-MEL-2 melanoma
[14] = system: SNB-19 CNS
[15] = system: HL-60(TB) leukemia
[16] = system: UACC-257 melanoma
[17] = system: UACC-62 melanoma
[18] = system: TK-10 renal
[19] = system: A498 renal
[20] = system: SR leukemia
[21] = system: ACHN renal
[22] = system: HOP-62 NSCLC
[23] = system: SN12C renal
[24] = system: 786-0 renal
[25] = system: MALME-3M melanoma
[26] = system: SK-OV-3 ovarian
[27] = system: NCI-H226 lung
[28] = system: OVCAR-8 ovarian
[29] = system: SF-295 CNS
[30] = system: A549 NSCLC
[31] = system: U251 CNS
[32] = system: HCT-116 colon
[33] = system: MCF7 breast
[34] = system: SK-MEL-5 melanoma
[35] = system: MDA-MB-231 breast
[36] = system: HS 578T breast
[37] = system: SK-MEL-28 melanoma
[38] = system: NCI-H522 lung
[39] = system: IGROV1 ovarian
[40] = system: NCI/ADR-RES ovarian
[41] = system: OVCAR-5 ovarian
[42] = system: MDA-N
[43] = system: LOX IMVI melanoma
[44] = system: NCI-H23 lung
[45] = system: BT-549 breast
[46] = system: HCT-15 colon
[47] = system: HT29 colon
[48] = system: EKVX NSCLC
[49] = system: T-47D breast
[50] = system: UO-31 renal
[51] = system: CAKI-1 renal
[52] = system: OVCAR-3 ovarian
[53] = system: SF-268 CNS
[54] = system: COLO 205 colon

**Q.** `CC(C)(C)OC(=O)CCC1NC(=O)[C@@H]2Cc3c([nH]c4ccccc34)C(C3CCCCC3)N2C1=O` (some centres undefined) was tested. Which TGI [1] did it give?
**A.** Its TGI is greater than 100 µM.

**Q.** What about the TGI [2] of the same molecule?
**A.** Its TGI is 61.3 µM.

**Q.** What about the TGI [3] of the same molecule?
**A.** Its TGI is greater than 100 µM.

**Q.** What about the TGI [4] of the same molecule?
**A.** The TGI was greater than 100 µM.

**Q.** And the TGI [5]?
**A.** The TGI was greater than 100 µM.

**Q.** And the TGI [6]?
**A.** Its TGI is 78 µM.

**Q.** What about the TGI [7] of the same molecule?
**A.** The TGI was greater than 100 µM.

**Q.** What about the TGI [8] of the same molecule?
**A.** Its TGI is greater than 100 µM.

**Q.** And the TGI [9]?
**A.** The TGI was 56.5 µM.

**Q.** What about the TGI [10] of the same molecule?
**A.** Its TGI is greater than 100 µM.

**Q.** What about the TGI [11] of the same molecule?
**A.** Its TGI is 78.3 µM.

**Q.** What about the TGI [12] of the same molecule?
**A.** The TGI was 74.2 µM.

**Q.** What about the TGI [13] of the same molecule?
**A.** The TGI was 65.5 µM.

**Q.** What about the TGI [14] of the same molecule?
**A.** The TGI was greater than 100 µM.

**Q.** And the TGI [15]?
**A.** The TGI was 41.9 µM.

**Q.** What about the TGI [16] of the same molecule?
**A.** The TGI was greater than 100 µM.

**Q.** What about the TGI [17] of the same molecule?
**A.** The TGI was greater than 100 µM.

**Q.** What about the TGI [18] of the same molecule?
**A.** The TGI was greater than 100 µM.

**Q.** What about the TGI [19] of the same molecule?
**A.** The TGI was greater than 100 µM.

**Q.** And the TGI [20]?
**A.** The TGI was 61.1 µM.

**Q.** What about the TGI [21] of the same molecule?
**A.** Its TGI is greater than 100 µM.

**Q.** What about the TGI [22] of the same molecule?
**A.** Its TGI is greater than 100 µM.

**Q.** What about the TGI [23] of the same molecule?
**A.** The TGI was 65.6 µM.

**Q.** What about the TGI [24] of the same molecule?
**A.** Its TGI is greater than 100 µM.

**Q.** What about the TGI [25] of the same molecule?
**A.** Its TGI is 80.3 µM.

**Q.** And the TGI [26]?
**A.** The TGI was greater than 100 µM.

**Q.** And the TGI [27]?
**A.** Its TGI is greater than 100 µM.

**Q.** And the TGI [28]?
**A.** The TGI was greater than 100 µM.

**Q.** What about the TGI [29] of the same molecule?
**A.** The TGI was 66.2 µM.

**Q.** And the TGI [30]?
**A.** Its TGI is greater than 100 µM.

**Q.** What about the TGI [31] of the same molecule?
**A.** Its TGI is greater than 100 µM.

**Q.** And the TGI [32]?
**A.** Its TGI is greater than 100 µM.

**Q.** And the TGI [33]?
**A.** The TGI was greater than 100 µM.

**Q.** And the TGI [34]?
**A.** The TGI was greater than 100 µM.

**Q.** What about the TGI [35] of the same molecule?
**A.** The TGI was 76.6 µM.

**Q.** What about the TGI [36] of the same molecule?
**A.** Its TGI is greater than 100 µM.

**Q.** What about the TGI [37] of the same molecule?
**A.** The TGI was greater than 100 µM.

**Q.** And the TGI [38]?
**A.** Its TGI is greater than 100 µM.

**Q.** What about the TGI [39] of the same molecule?
**A.** The TGI was greater than 100 µM.

**Q.** And the TGI [40]?
**A.** Its TGI is greater than 100 µM.

**Q.** What about the TGI [41] of the same molecule?
**A.** Its TGI is greater than 100 µM.

**Q.** And the TGI [42]?
**A.** Its TGI is greater than 100 µM.

**Q.** And the TGI [43]?
**A.** The TGI was greater than 100 µM.

**Q.** And the TGI [44]?
**A.** Its TGI is greater than 100 µM.

**Q.** And the TGI [45]?
**A.** Its TGI is greater than 100 µM.

**Q.** And the TGI [46]?
**A.** Its TGI is greater than 100 µM.

**Q.** What about the TGI [47] of the same molecule?
**A.** The TGI was 40.2 µM.

**Q.** And the TGI [48]?
**A.** The TGI was greater than 100 µM.

**Q.** What about the TGI [49] of the same molecule?
**A.** The TGI was greater than 100 µM.

**Q.** And the TGI [50]?
**A.** Its TGI is greater than 100 µM.

**Q.** What about the TGI [51] of the same molecule?
**A.** The TGI was greater than 100 µM.

**Q.** What about the TGI [52] of the same molecule?
**A.** Its TGI is 99.7 µM.

**Q.** And the TGI [53]?
**A.** Its TGI is greater than 100 µM.

**Q.** What about the TGI [54] of the same molecule?
**A.** The TGI was 38.9 µM.

Reference: PubChem BioAssay (NCI)
